Laboratory results taken from BindingDB's records for PubMed 35261239 (Bristol-Myers Squibb Company, 2022).

Target: TGF-beta-activated kinase 1 (MAP3K7)
Experiment: Inhibition of TAK (unknown origin)

IC50 [nM]	SMILES
260	COC(=O)Nc1cc(-c2cnc(OC[C@@](C)(N)CC(C)C)c(C#N)c2)ccn1
120	COC(=O)Nc1cc(-c2cnc(OC[C@@](C)(N)CC(C)C)c(Cl)c2)ccn1
